Publication PMC4774911, “Biochemical Screening of Five Protein Kinases from Plasmodium falciparum against 14,000 Cell-Active Compounds” (PLoS ONE, 2016)
Read-outs that look alike come from different tables or passages of the source.

Key:
[1] = biological target: T1, Plasmodium falciparum protein kinase 6 (PK6) (Plasmodium falciparum, UniProt Q8IDW1); assay: biochemical; settings: hits below 1 uM; read-out: PK6 IC50
T1 construct: 6-Histidine (N); made in house
T1 sequence (Q8IDW1 1-305): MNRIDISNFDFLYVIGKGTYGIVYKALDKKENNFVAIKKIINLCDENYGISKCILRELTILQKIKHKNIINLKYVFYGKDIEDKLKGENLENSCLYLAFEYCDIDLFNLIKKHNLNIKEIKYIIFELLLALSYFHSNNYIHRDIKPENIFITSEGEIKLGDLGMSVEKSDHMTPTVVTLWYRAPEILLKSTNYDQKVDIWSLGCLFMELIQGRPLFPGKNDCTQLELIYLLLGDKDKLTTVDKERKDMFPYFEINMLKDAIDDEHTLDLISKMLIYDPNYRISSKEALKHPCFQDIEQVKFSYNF

HepG2 cells = settings: Nature 2010, cited from earlier work
P. falciparum 3D7 cells = settings: Nature 2010, cited from earlier work
DD2 [2] = system: DD2; set-up: method as in F.J. Gamo et al., Nature 2010; settings: downloaded from ChEMBL, ref F.J. Gamo et al., Nature 2010; cited from earlier work
3D7 PFLDH [3] = system: 3D7 PFLDH; set-up: method as in F.J. Gamo et al., Nature 2010; concentration or dose not given beside the values; settings: downloaded from ChEMBL, ref F.J. Gamo et al., Nature 2010; cited from earlier work
[4] = biological target: T2, Plasmodium falciparum calcium-dependent protein kinase 1 (CDPK1) (Plasmodium falciparum, UniProt P62344); assay: CDPK1 Kinase-Glo ATP-consumption screen and dose-response; assay type: biochemical; settings: hits below 1 uM; read-out: CDPK1 IC50
T2 construct: 6-Histidine (N); made in house
T2 sequence (P62344 whole entry): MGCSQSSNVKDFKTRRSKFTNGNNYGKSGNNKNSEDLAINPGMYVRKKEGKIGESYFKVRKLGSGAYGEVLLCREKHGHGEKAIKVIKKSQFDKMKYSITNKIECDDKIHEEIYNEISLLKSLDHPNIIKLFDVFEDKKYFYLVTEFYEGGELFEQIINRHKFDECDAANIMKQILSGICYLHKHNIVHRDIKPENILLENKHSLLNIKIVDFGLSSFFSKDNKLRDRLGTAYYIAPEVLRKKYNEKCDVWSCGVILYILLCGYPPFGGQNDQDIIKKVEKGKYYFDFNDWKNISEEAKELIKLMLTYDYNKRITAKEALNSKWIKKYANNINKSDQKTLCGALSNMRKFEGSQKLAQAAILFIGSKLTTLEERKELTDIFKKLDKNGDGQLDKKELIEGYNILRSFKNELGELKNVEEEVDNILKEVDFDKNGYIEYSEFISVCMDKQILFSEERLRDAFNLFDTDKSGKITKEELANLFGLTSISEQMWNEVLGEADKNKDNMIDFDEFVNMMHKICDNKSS
Protocol: Biochemical assays were performed in white 384-well plates (Nunc). Liquid transfers were done manually with 8-channel pipets. Compounds were initially tested in a single-point screen (final concentration 1 μM). […] The catalytic activity of each kinase was considered proportional to ATP consumed, as determined from measurements of residual [ATP] with the luciferase-based reagent Kinase-Glo (Promega) following incubation. Luminescence (proportional to residual [ATP]) was measured on the plate readers FLx800 (BioTek Instruments, Winooski, VT, USA) and MicroBeta^2 (PerkinElmer, Waltham, MA, USA). Incubation times were chosen to ensure near-complete ATP depletion in the absence of inhibition, thus maximizing the difference in signal between inhibited and uninhibited wells.
40 μM Syntide-2 was used as a substrate; BKI-1 [14] was used as a control inhibitor, while reaction mixtures lacking Syntide-2 were included as an additional negative control. Incubation time was 90 minutes. Reactions were terminated by adding excess EGTA (5 mM), which sequesters Ca^2+ and halts calcium-dependent kinase activity.

DD2 [5] = system: DD2; set-up: method as in F.J. Gamo et al., Nature 2010; settings: P. falciparum Dd2; downloaded from ChEMBL ref F.J. Gamo et al., Nature 2010; cited from earlier work
3D7 PFLDH [6] = system: 3D7 PFLDH; set-up: method as in F.J. Gamo et al., Nature 2010; settings: downloaded from ChEMBL ref F.J. Gamo et al., Nature 2010; cited from earlier work
[7] = HepG2, downloaded from ChEMBL, ref F.J. Gamo et al.
[8] = 3D7, downloaded from ChEMBL, ref F.J. Gamo et al.
[9] = HepG2 cells, downloaded from ChEMBL ref F.J. Gamo et al.
[10] = P. falciparum 3D7, downloaded from ChEMBL ref F.J. Gamo et al.

| SMILES | IC50 [1] [nM] | IC50 [4] [nM] | PCT_INHIB_HEPG2 (HepG2 cells; [7]) [%] | PCT_IHB_3D7 (P. falciparum 3D7 cells; [8]) [%] | pXC50_3D7 (P. falciparum 3D7 cells; [8]) | PCT_INHB_DD2 (DD2 [2]) [%] | PCT_INHIB_3D7_PFLDH (3D7 PFLDH [3]) [%] | PCT_INHIB_HEPG2 (HepG2 cells; [9]) | PCT_IHB_3D7 (P. falciparum 3D7 cells; [10]) | pXC50_3D7 (P. falciparum 3D7 cells; [10]) | PCT_INHB_DD2 (DD2 [5]) | PCT_INHIB_3D7_PFLDH (3D7 PFLDH [6]) |
| --- | --- | --- | --- | --- | --- | --- | --- | --- | --- | --- | --- | --- |
| CS(=O)(=O)Cc1cccc(Nc2ncc(Cl)c(Nc3cccnc3C(N)=O)n2)c1.Cl [TCMDC-134166] | 74 | – | 56 | 96 | 6.775 | 97 | 0 | – | – | – | – | – |
| CC(C)(CNCCOc1ccc(Cl)cc1)c1nc(-c2ccnc(N)n2)c(-c2ccc(Cl)c(O)c2)[nH]1.Cl [TCMDC-141161] | – | 755 | – | – | – | – | – | 45 | 97 | 6.079 | 19 | 0 |
| CC(C)(CNCc1ccc(C(F)(F)F)cc1)c1nc(-c2ccnc(N)n2)c(-c2ccc(Cl)c(O)c2)[nH]1.Cl [TCMDC-141162] | – | 353 | – | – | – | – | – | 32 | 100 | 6.817 | 37 | 0 |
| CC(C)(CNCc1ccc(F)c(F)c1)c1nc(-c2ccnc(N)n2)c(-c2ccc(Cl)c(O)c2)[nH]1.Cl [TCMDC-141163] | – | 469 | – | – | – | – | – | 41 | 99 | 6.131 | 79 | 0 |
| CN(C)CCOc1ccc(-c2cc(-c3ccc(Cl)c(O)c3)c(-c3ccnc(N)n3)o2)cc1 [TCMDC-141332] | – | 168 | – | – | – | – | – | 43 | 100 | 5.879 | 95 | 2 |
| CN(C)CCOc1ccc(-c2cc(-c3ccnc(N)n3)c(-c3ccc(Cl)c(O)c3)o2)cc1 [TCMDC-141338] | – | 684 | – | – | – | – | – | 14 | 100 | 6.01 | 91 | 5 |
| CN(c1ccc(NC(=O)Nc2cc(C(F)(F)F)ccc2F)cc1)c1ccnc(NCCN2CCOCC2)n1.O=C(O)C(F)(F)F [TCMDC-141590] | 520 | – | 67 | 97 | 6.29 | 73 | 0 | – | – | – | – | – |

More lines, main results first:

| IC50 [1] [nM] | IC50 [4] [nM] | SMILES | PCT_INHIB_HEPG2 (HepG2 cells; [7]) [%] | PCT_IHB_3D7 (P. falciparum 3D7 cells; [8]) [%] | pXC50_3D7 (P. falciparum 3D7 cells; [8]) | PCT_INHB_DD2 (DD2 [2]) [%] | PCT_INHIB_3D7_PFLDH (3D7 PFLDH [3]) [%] | PCT_INHIB_HEPG2 (HepG2 cells; [9]) | PCT_IHB_3D7 (P. falciparum 3D7 cells; [10]) | pXC50_3D7 (P. falciparum 3D7 cells; [10]) | PCT_INHB_DD2 (DD2 [5]) | PCT_INHIB_3D7_PFLDH (3D7 PFLDH [6]) |
| --- | --- | --- | --- | --- | --- | --- | --- | --- | --- | --- | --- | --- |
| 691 | – | CS(=O)(=O)Cc1ccc(Nc2ncc(Cl)c(Nc3cccnc3C(N)=O)n2)cc1.Cl [TCMDC-134165] | 54 | 97 | 6.062 | 97 | 0 | – | – | – | – | – |
| 128 | – | CC(=O)Nc1ccc(Nc2ncc([N+](=O)[O-])c(Nc3ccccc3C(N)=O)n2)cc1.Cl [TCMDC-138731] | 42 | 98 | 6.437 | 97 | 2 | – | – | – | – | – |
| 138 | – | CC(=O)c1ccc(NC(=O)Nc2ccc(N(C)c3ccnc(Nc4cccc(CS(C)(=O)=O)c4)n3)cc2)cc1 [TCMDC-138736] | 86 | 100 | 6.9122 | 98 | 0 | – | – | – | – | – |
| 844 | – | CN(c1ccc2c(c1)nc(NCc1ccc(F)cc1)n2C)c1ccnc(Nc2ccc(CS(C)(=O)=O)cc2)n1.Cl [TCMDC-138747] | 48 | 97 | 6.082 | 79 | 7 | – | – | – | – | – |
| 269 | – | CCNC(=O)Nc1ccc(N(C)c2ccnc(Nc3ccc(CS(C)(=O)=O)cc3)n2)cc1.Cl [TCMDC-138759] | 0 | 100 | 7.051 | 99 | 2 | – | – | – | – | – |
| 402 | – | CN(c1ccc(NC(=O)Nc2cccc(Cl)c2)cc1)c1ccnc(N)n1.Cl [TCMDC-138782] | 75 | 100 | 6.202 | 40 | 0 | – | – | – | – | – |
